Earlier results as cited in paper PMC6311893, “Computational prediction of plasma protein binding of cyclic peptides from small molecule experimental data using sparse modeling techniques” (BMC Bioinformatics, 2018).

System: plasma protein
Details: fraction bound to plasma protein; small molecule dataset, sheet 1-SM (Set Dte = test, Dtr = training); ref Ingle et al.; cited from earlier work

Molecule	PPB (fb)
C[C@@](Cc1ccc(O)c(O)c1)(NN)C(=O)O [carbidopa]	0.36
CCOC(=O)C(C)(C)Oc1ccc(Cl)cc1 [clofibrate]	0.96
Clc1ccc2c(c1)C(N1CCNCC1)=Nc1ccccc1O2 [amoxapine]	0.9
CCCCCCC(N)C(=O)NC1C(=O)N2C1SC(C)(C)C2C(=O)O (stereo not shown) [penicillin13]	0.66
CN1CCC(=C2c3ccccc3CCc3cccnc32)CC1 [azatadine]	0.1
COCC1CN(c2ccc(OCc3cccc(C#N)c3)cc2)C(=O)O1 (stereo not shown) [cimoxatone]	0.94
CC[C@@]1(O)C(=O)OCc2c1cc1n(c2=O)Cc2cc3ccccc3nc2-1 [Camptothecin]	0.98
CC12CC(=O)C3C(CCC4CC(O)CCC43C)C1CCC2C(=O)CO (stereo not shown) [alfadolone]	0.3
CCN(CC)C(=O)C1(c2ccccc2)CC1CN (stereo not shown) [milnacipran]	0.13
CN(C)C/C=C(/c1ccc(Br)cc1)c1cccnc1 [zimeldine]	0.9
Cc1ncc2c(c1O)COC2c1ccc(Cl)cc1 (stereo not shown) [cicletanine]	0.93
CC(C)(C#N)c1cc(Cn2cncn2)cc(C(C)(C)C#N)c1 [anastrozole]	0.44
CCOC(=O)c1c(CSc2ccccc2)n(C)c2cc(Br)c(O)c(CN(C)C)c12 [arbidol]	0.91
NCCc1ccc(O)c(O)c1 [dopamine]	0.1
NCC[C@H](O)C(=O)N[C@@H]1C[C@H](N)[C@@H](O[C@H]2O[C@H](CN)CC[C@H]2N)[C@H](O)[C@H]1O[C@H]1O[C@H](CO)[C@@H](O)[C@H](N)[C@H]1O [arbekacin]	0.08
CC(C)(Oc1ccc(CCNC(=O)c2ccc(Cl)cc2)cc1)C(=O)O [bezafibrate]	0.95
CCC1(c2ccc(N)cc2)CCC(=O)NC1=O (stereo not shown) [aminoglutethimide]	0.24
OCCN(CCO)c1nc(N2CCCCC2)c2nc(N(CCO)CCO)nc(N3CCCCC3)c2n1 [dipyridamole]	0.99
CC(=O)[C@H]1CC[C@H]2[C@@H]3CCC4=CC(=O)CC[C@]4(C)[C@H]3CC[C@]12C [progesterone]	0.97
CC12CCC3c4ccc(O)cc4CCC3C1CCC2O (stereo not shown) [17-a-estradiol]	0.98
NS(=O)(=O)c1cc(-c2nnn[nH]2)c(NCc2cccs2)cc1Cl [azosemide]	0.96
CCOC(=O)[C@H](CCc1ccccc1)N[C@@H](C)C(=O)N1[C@H](C(=O)O)C[C@H]2CCCC[C@@H]21 [trandolapril]	0.84
Cc1ccc(-c2cc(C(F)(F)F)nn2-c2ccc(S(N)(=O)=O)cc2)cc1 [celecoxib]	0.97
CCC(Oc1ccccc1)C(=O)NC1C(=O)N2C1SC(C)(C)C2C(=O)O (stereo not shown) [penicillin50]	0.86

Same assay, conditions: fraction bound to plasma protein; small molecule dataset, sheet 1-SM, Set Dtr; ref Ingle et al.; cited from earlier work

Molecule	PPB (fb)
N[C@@H](Cc1ccc(O)c(O)c1)C(=O)O [Levodopa]	0.12
CC1=NS(=O)(=O)c2cc(Cl)ccc2N1 [Diazoxide]	0.92
COc1c(N2CCNC(C)C2)c(F)cc2c(=O)c(C(=O)O)cn(C3CC3)c12 (stereo not shown) [Gatifloxacin]	0.2
C[C@@H](O)[C@H]1C(=O)N2C(C(=O)O)=C(S[C@@H]3CN[C@H](C(=O)Nc4cccc(C(=O)O)c4)C3)[C@H](C)[C@H]12 [Ertapenem]	0.91
O=c1c(O)c(-c2ccc(O)c(O)c2)oc2cc(O)cc(O)c12 [Quercetin]	0.99
CN(Cc1cnc2nc(N)nc(N)c2n1)c1ccc(C(=O)N[C@@H](CCC(=O)O)C(=O)O)cc1 [Methotrexate]	0.58
CC(=O)NC(CS)C(=O)O (stereo not shown) [Acetylcysteine__ N-]	0.83
COc1cc(C(=O)NS(=O)(=O)c2ccccc2C)ccc1Cc1cn(C)c2ccc(NC(=O)OC3CCCC3)cc12 [zafirlukast]	0.99
CCCCc1nc(Cl)c(CO)n1Cc1ccc(-c2ccccc2-c2nn[nH]n2)cc1 [Losartan]	0.99
COc1cc(NS(C)(=O)=O)ccc1Nc1c2ccccc2nc2ccccc12 [Amsacrine]	0.98
Nc1nc(Cl)nc2c1ncn2[C@H]1C[C@H](O)[C@@H](CO)O1 [Cladribine]	0.2
O=c1[nH]cnc2c1ncn2[C@H]1CC[C@@H](CO)O1 [Didanosine]	0.04
CN(C)CCCN1c2ccccc2CCc2ccccc21 [Imipramine]	0.9
CN(C)CCC=C1c2ccccc2COc2ccccc21 [Doxepin]	0.81
COc1ccnc(C[S+]([O-])c2nc3ccc(OC(F)F)cc3[nH]2)c1OC (stereo not shown) [Pantoprazole]	0.98
C=C1CC[C@@]2(O)[C@H]3Cc4ccc(O)c5c4[C@@]2(CCN3CC2CC2)[C@H]1O5 [Nalmefene]	0.36
C[C@@H](CN1CC(=O)NC(=O)C1)N1CC(=O)NC(=O)C1 [Dexrazoxane]	0.01
COCCNC(=O)CN(CCN(CCN(CC(=O)O)CC(=O)NCCOC)CC(=O)O)CC(=O)O [Gadoversetamide]	0
Cc1cccc([C@H](C)c2cnc[nH]2)c1C [Dexmedetomidine]	0.94
CC(=O)NC[C@H]1CN(c2ccc(N3CCOCC3)c(F)c2)C(=O)O1 [Linezolid]	0.31
OC(CCN1CCCCC1)(c1ccccc1)C1CC2C=CC1C2 (stereo not shown) [Biperiden]	0.93
C[C@H]1O[C@@H](n2cc(F)c(=O)[nH]c2=O)[C@H](O)[C@@H]1O [Doxifluridine]	0.39
NC(=O)OC[C@@H]1[C@H](NC(=O)/C(=N\OCC(=O)O)c2csc(N)n2)C(=O)N1S(=O)(=O)O [Carumonam]	0.28

Same assay, conditions: fraction bound to plasma protein; small molecule dataset, sheet 1-SM; ref Ingle et al.; cited from earlier work

Molecule	PPB (fb)
CN(C)CC/C=C1\c2ccccc2CSc2ccccc21 [dothiepin]	0.85
CN1CCN(CCCN2c3ccccc3Sc3ccccc32)CC1 [perazine]	0.95
CC(Oc1c(Cl)cccc1Cl)C1=NCCN1 (stereo not shown) [lofexidine]	0.6
CC[C@@]1(O)C(=O)OCc2c1cc1n(c2=O)Cc2cc3c(CN(C)C)c(O)ccc3nc2-1 [Topotecan]	0.25
Nc1cc(N2CCCCC2)nc(N)[n+]1[O-] [minoxidil]	0.03
CS(=O)(=O)c1ccc([C@@H](O)[C@@H](CF)NC(=O)C(Cl)Cl)cc1 [florfenicol]	0.12
COc1nccnc1NS(=O)(=O)c1ccc(N)cc1 [sulfametopyrazine]	0.72
CC/C=C/C/C=C/C/C=C/C/C=C/C=C/C(O)CCCC(=O)O (stereo not shown) [hepe]	0.99
CCC(CC)OCC(=O)NC1C(=O)N2C1SC(C)(C)C2C(=O)O (stereo not shown) [penicillin8]	0.47
CCN(CC)CCNC(=O)c1cc(S(C)(=O)=O)ccc1OC [tiapride]	0
COC(CC(=O)NC1C(=O)N2C1SC(C)(C)C2C(=O)O)c1ccc(Br)s1 (stereo not shown) [penicillin74]	0.9
CC1(C)O[C@@H]2C[C@H]3[C@@H]4CCC5=CC(=O)C=C[C@]5(C)[C@@]4(F)[C@@H](O)C[C@]3(C)[C@]2(C(=O)CO)O1 [Triamcinolone Acetonide]	0.8
CNS(=O)(=O)Cc1ccc2[nH]cc(CCN(C)C)c2c1 [Sumatriptan]	0.17
O=C1NCCN1CCN1CCC(c2cn(-c3ccc(F)cc3)c3ccc(Cl)cc23)CC1 [sertindole]	0.99
C#C[C@]1(O)CC[C@H]2[C@@H]3CCC4=CCCC[C@@H]4[C@H]3CC[C@@]21C [lynestrenol]	0.96
CC(C)(O)C(=O)Nc1ccc([N+](=O)[O-])c(C(F)(F)F)c1 [hydroxyflutamide]	0.93
COc1cc2nc(N3CCN(C(=O)C4CCCO4)CC3)nc(N)c2cc1OC (stereo not shown) [Terazosin]	0.91
CN(C)S(=O)(=O)C1=CC2C(C=C1)Sc1ccccc1N2CCCN1CCC(CCO)CC1 (stereo not shown) [Pipotiazine]	0.45
C[n+]1ccccc1/C=N/O [pralidoxime chloride]	0.05
Cc1oncc1C(=O)Nc1ccc(C(F)(F)F)cc1 [leflunomide]	0.99
CC(=O)CCCCn1c(=O)c2c(ncn2C)n(C)c1=O [pentoxifylline]	0
CCCCCCCCCCC[C@@H](C[C@@H]1OC(=O)[C@H]1CCCCCC)OC(=O)[C@H](CC(C)C)NC=O [orlistat]	0.99
COc1c(C)c2c(c(O)c1C/C=C(\C)CCC(=O)O)C(=O)OC2 [mycophenolic acid]	0.96
Clc1ccccc1CN1CCc2sccc2C1 [ticlopidine]	0.96

Same assay, conditions: plasma; cited from earlier work

Molecule	PPB (fb)
CCC1(c2cccc(O)c2)CCCCN(C)C1 (stereo not shown) [Meptazinol]	0.27
COc1ccc(Cc2nccc3cc(OC)c(OC)cc23)cc1OC [Papaverine]	0.9
C=C(Br)CC1(C(C)C)C(=O)NC(=O)NC1=O [ibomal]	0.34
CCc1cc2c(s1)-n1c(C)nnc1CN=C2c1ccccc1Cl [etizolam]	0.93
dicoumarol	0.99
salvianolic acid B	0.75
Oc1ccc2c(c1)[C@@]13CCCC[C@@]1(O)[C@@H](C2)N(CC1CCC1)CC3 [Butorphanol]	0.81
COc1ccc(CC(C)NCC(O)c2ccc(O)c(NC=O)c2)cc1 (stereo not shown) [formoterol]	0.62
C[C@]12CCC(=O)C(O)=C1CC[C@@H]1[C@@H]2CC[C@]2(C)C(=O)CC[C@@H]12 [formestane]	0.84
CCN(C(C)=O)c1cccc(-c2ccnc3c(C#N)cnn23)c1 [Zaleplon]	0.6
methacycline	0.84
Cefoperazone	0.92
Fluorescein	0.87
CC1(C)S[C@@H]2[C@H](NC(=O)[C@H](N)c3ccccc3)C(=O)N2[C@H]1C(=O)O [Ampicillin]	0.16
CN(C)Cc1nnc2n1-c1ccc(Cl)cc1C(c1ccccc1)=NC2 [Adinazolam]	0.69
Clc1ccc2c(c1)C(c1ccccc1)=NCc1nncn1-2 [estazolam]	0.93
C#C[C@]1(O)CC[C@H]2[C@@H]3CCc4cc(OS(=O)(=O)O)ccc4[C@H]3CC[C@@]21C [Ethinylestradiol-3-Sulfate]	0.99
